2 compounds from ChEMBL document CHEMBL4229333, “Effects of rigidity on the selectivity of protein kinase inhibitors” (Eur J Med Chem, 2018) can be followed below.

For experiment [1], the target named is Macrophage colony-stimulating factor 1 receptor (Homo sapiens) (UniProt P07333). Description: Inhibition of FMS (unknown origin) at 1 uM by mobility shift microfluidics platform based assay relative to control.
Experiment [2] has as its target Vascular endothelial growth factor receptor 3 (Homo sapiens) (UniProt P35916). Description: Inhibition of FLT4 (unknown origin) at 1 uM by mobility shift microfluidics platform based assay relative to control.
Experiment [3] concerns the target Serine/threonine-protein kinase 24 (Homo sapiens) (UniProt Q9Y6E0). Description: Inhibition of MST3 (unknown origin) at 1 uM by mobility shift microfluidics platform based assay relative to control.
Experiment [4] deals with Interleukin-1 receptor-associated kinase 4 (Homo sapiens) (UniProt Q9NWZ3). Description: Inhibition of IRAK4 (unknown origin) at 1 uM by mobility shift microfluidics platform based assay relative to control.
For experiment [5], the target named is Serine/threonine-protein kinase PAK 6 (Homo sapiens) (UniProt Q9NQU5). The experiment is described as follows: Inhibition of PAK6 (unknown origin) at 1 uM by mobility shift microfluidics platform based assay relative to control.
The target of experiment [6] is Protein kinase C eta type (Homo sapiens) (UniProt P24723). The experiment is described as follows: Inhibition of PKC-eta (unknown origin) at 1 uM by mobility shift microfluidics platform based assay relative to control.
The target in experiment [7] is Casein kinase I isoform gamma-3 (Homo sapiens) (UniProt Q9Y6M4). Description: Inhibition of CK1-gamma3 (unknown origin) at 1 uM by mobility shift microfluidics platform based assay relative to control.
For experiment [8], the target named is Ribosomal protein S6 kinase alpha-2 (Homo sapiens) (UniProt Q15349). The experiment is described as follows: Inhibition of RSK3 (unknown origin) at 1 uM by mobility shift microfluidics platform based assay relative to control.
Experiment [9] deals with SRSF protein kinase 2 (Homo sapiens) (UniProt P78362). Description: Inhibition of SRPK2 (unknown origin) at 1 uM by mobility shift microfluidics platform based assay relative to control.
The target in experiment [10] is Casein kinase I isoform gamma-2 (Homo sapiens) (UniProt P78368). Description: Inhibition of CK1-gamma2 (unknown origin) at 1 uM by mobility shift microfluidics platform based assay relative to control.
Experiment [11] concerns the target Serine/threonine-protein kinase PAK 3 (Homo sapiens) (UniProt O75914). The experiment is described as follows: Inhibition of PAK3 (unknown origin) at 1 uM by mobility shift microfluidics platform based assay relative to control.
Experiment [12] addresses Bcr/Abl fusion protein (Homo sapiens, UniProt P00519). The experiment is described as follows: Inhibition of BCR-ABL (unknown origin) expressed in mouse BA/F3 cells assessed as reduction in ABL phosphorylation at Y412 residue incubated for 3 hrs by immunoblotting assay. Type of experiment: cell-based.
The target of experiment [13] is Proto-oncogene tyrosine-protein kinase ROS (Homo sapiens) (UniProt P08922). The experiment is described as follows: Inhibition of ROS (unknown origin) at 1 uM by mobility shift microfluidics platform based assay relative to control.
The target in experiment [14] is Macrophage-stimulating protein receptor (Homo sapiens) (UniProt Q04912). The experiment is described as follows: Inhibition of RON (unknown origin) at 1 uM by mobility shift microfluidics platform based assay relative to control.
Experiment [15] has as its target Tyrosine-protein kinase SYK (Homo sapiens) (UniProt P43405). The experiment is described as follows: Inhibition of SYK (unknown origin) at 1 uM by mobility shift microfluidics platform based assay relative to control.
Experiment [16] addresses Insulin receptor (Homo sapiens) (UniProt P06213). The experiment is described as follows: Inhibition of INSR (unknown origin) at 1 uM by mobility shift microfluidics platform based assay relative to control.
Experiment [17] addresses Ribosomal protein S6 kinase alpha-5 (Homo sapiens) (UniProt O75582). The experiment is described as follows: Inhibition of MSK1 (unknown origin) at 1 uM by mobility shift microfluidics platform based assay relative to control.
Experiment [18] addresses T1, Tyrosine-protein kinase ABL1 (Homo sapiens, UniProt P00519). Description: Inhibition of ABL (unknown origin) at 30 nM by phosphocellulose paper disk assay.
In experiment [19] the target is T1, Tyrosine-protein kinase ABL1. The experiment is described as follows: Inhibition of ABL (unknown origin) by phosphocellulose paper disk assay.

pIC50: −log10 of the molar value. Calls of active or inactive are those of the source. The rule behind the calls is not given here.

Insulin receptor (Homo sapiens), sequence (P06213 28-758 limits assumed): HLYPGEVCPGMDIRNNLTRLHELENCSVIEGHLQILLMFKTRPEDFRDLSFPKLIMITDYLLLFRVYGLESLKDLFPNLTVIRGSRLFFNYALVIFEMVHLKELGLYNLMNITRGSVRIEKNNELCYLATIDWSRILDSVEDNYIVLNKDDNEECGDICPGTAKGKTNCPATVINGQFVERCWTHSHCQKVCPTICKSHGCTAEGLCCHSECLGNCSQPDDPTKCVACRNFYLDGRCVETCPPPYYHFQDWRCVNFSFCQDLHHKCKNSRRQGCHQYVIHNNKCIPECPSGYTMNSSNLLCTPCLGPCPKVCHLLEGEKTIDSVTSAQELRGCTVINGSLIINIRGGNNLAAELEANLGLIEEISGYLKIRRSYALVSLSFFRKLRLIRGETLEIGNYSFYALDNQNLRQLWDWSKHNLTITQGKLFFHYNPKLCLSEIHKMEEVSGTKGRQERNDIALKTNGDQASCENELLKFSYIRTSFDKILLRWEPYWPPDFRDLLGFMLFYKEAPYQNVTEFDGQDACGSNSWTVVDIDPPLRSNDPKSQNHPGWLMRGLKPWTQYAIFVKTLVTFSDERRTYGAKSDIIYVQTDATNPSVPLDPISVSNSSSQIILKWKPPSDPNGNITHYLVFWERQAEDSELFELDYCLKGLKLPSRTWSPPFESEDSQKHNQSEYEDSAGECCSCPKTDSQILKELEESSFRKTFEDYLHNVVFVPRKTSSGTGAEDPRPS
Insulin receptor (Homo sapiens), sequence (P06213 763-1382 limits assumed): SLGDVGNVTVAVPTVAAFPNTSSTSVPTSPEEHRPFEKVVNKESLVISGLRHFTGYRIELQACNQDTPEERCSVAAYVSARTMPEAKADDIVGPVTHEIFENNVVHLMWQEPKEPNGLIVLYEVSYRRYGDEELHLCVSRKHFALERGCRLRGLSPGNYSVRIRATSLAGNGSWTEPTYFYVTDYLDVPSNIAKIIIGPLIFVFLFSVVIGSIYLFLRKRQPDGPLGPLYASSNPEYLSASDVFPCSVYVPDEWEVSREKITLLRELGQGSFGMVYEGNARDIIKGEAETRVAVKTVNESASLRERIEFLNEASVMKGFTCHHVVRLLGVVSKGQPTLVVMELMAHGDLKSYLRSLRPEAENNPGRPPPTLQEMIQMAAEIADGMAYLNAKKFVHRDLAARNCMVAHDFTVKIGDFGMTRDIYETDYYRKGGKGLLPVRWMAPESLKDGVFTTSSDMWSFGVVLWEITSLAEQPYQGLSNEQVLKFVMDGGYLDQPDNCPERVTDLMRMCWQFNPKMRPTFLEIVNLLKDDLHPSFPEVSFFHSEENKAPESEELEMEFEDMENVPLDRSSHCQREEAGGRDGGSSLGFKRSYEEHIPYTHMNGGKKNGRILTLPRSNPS
Ribosomal protein S6 kinase alpha-2 (Homo sapiens), sequence (Q15349 whole entry): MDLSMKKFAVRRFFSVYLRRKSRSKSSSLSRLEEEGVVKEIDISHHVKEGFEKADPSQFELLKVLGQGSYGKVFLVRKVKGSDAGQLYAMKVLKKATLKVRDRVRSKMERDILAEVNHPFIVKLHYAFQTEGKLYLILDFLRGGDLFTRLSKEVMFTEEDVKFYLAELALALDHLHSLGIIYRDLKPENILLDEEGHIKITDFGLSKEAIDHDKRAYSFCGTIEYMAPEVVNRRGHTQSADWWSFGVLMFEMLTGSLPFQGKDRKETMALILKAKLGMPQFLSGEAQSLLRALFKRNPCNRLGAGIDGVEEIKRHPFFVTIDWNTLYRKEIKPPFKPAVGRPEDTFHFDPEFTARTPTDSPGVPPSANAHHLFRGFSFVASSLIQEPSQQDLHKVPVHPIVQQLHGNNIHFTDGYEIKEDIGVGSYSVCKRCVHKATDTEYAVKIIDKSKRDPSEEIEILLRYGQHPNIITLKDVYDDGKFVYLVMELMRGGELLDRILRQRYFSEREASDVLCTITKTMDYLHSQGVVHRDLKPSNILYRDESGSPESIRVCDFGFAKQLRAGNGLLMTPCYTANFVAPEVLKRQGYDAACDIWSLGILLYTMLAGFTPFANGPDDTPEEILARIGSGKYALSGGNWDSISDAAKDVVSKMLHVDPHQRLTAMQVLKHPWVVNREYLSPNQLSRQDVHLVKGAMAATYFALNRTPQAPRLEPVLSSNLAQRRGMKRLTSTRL
Serine/threonine-protein kinase 24 (Homo sapiens), sequence (Q9Y6E0 whole entry, looked up): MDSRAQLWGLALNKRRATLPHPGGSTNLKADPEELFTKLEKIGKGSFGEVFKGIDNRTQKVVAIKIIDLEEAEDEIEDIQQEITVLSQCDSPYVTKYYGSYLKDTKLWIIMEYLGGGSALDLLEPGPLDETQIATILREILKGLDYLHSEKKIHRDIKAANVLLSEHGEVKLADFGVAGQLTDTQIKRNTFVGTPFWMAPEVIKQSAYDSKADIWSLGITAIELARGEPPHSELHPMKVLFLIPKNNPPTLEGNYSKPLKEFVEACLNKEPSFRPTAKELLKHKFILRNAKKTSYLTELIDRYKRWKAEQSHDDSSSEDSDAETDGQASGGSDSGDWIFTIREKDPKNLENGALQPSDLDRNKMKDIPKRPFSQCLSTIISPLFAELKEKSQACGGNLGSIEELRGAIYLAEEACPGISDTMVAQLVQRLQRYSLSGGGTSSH
Interleukin-1 receptor-associated kinase 4 (Homo sapiens), sequence (Q9NWZ3 whole entry): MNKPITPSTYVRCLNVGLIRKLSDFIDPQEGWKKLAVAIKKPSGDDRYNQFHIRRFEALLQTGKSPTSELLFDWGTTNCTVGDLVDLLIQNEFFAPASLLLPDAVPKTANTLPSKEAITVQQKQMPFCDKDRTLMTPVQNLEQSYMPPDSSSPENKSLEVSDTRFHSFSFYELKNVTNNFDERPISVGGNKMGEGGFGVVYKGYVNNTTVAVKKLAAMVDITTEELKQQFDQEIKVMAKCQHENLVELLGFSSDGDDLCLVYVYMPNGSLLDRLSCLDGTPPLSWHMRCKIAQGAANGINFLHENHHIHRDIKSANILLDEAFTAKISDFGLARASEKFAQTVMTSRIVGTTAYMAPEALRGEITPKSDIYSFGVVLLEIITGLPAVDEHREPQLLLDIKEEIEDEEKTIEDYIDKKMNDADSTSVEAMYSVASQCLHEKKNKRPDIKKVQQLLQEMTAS
T1 sequence (P00519 whole entry): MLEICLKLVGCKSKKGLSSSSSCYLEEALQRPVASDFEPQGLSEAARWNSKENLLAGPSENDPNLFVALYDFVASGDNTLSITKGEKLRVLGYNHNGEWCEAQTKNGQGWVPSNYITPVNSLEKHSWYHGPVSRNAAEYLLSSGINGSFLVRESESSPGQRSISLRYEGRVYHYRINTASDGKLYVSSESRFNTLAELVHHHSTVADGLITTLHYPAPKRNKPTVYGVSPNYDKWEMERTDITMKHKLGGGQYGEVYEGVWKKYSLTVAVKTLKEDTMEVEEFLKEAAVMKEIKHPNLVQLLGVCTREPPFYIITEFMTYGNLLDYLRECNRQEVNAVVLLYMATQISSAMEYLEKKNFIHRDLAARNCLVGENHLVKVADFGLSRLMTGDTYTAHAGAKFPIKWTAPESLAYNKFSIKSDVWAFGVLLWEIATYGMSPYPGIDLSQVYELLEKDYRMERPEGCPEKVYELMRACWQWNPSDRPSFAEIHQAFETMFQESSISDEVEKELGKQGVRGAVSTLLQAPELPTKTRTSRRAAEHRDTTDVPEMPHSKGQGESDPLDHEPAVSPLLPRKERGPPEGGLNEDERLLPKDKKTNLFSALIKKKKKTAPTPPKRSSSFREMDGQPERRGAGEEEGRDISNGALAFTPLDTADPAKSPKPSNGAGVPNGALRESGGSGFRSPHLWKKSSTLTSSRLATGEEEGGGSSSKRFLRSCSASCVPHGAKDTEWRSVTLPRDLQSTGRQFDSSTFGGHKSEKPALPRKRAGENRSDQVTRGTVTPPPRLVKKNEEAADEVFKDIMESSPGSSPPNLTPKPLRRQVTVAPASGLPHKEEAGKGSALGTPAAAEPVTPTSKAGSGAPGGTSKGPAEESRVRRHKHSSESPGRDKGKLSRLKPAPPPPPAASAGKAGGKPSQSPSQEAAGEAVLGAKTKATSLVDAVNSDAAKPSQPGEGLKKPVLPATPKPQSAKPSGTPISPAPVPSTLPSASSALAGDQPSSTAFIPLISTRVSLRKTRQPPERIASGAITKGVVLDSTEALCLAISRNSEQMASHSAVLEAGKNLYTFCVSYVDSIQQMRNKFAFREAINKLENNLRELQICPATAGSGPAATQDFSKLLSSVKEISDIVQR
Casein kinase I isoform gamma-2 (Homo sapiens), sequence (P78368 whole entry, looked up, canonical isoform): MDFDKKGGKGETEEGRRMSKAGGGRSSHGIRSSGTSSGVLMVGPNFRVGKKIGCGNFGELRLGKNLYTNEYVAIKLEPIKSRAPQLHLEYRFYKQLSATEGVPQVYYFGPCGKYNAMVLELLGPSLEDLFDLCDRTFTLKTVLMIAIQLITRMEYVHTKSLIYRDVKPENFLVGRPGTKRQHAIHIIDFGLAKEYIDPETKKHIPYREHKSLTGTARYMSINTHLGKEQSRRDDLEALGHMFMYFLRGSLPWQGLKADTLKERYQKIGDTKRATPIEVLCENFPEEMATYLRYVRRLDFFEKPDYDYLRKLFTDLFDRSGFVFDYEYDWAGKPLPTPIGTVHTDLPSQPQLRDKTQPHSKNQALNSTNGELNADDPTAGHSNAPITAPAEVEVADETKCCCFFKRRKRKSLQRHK
Casein kinase I isoform gamma-3 (Homo sapiens), sequence (Q9Y6M4 whole entry, looked up, canonical isoform): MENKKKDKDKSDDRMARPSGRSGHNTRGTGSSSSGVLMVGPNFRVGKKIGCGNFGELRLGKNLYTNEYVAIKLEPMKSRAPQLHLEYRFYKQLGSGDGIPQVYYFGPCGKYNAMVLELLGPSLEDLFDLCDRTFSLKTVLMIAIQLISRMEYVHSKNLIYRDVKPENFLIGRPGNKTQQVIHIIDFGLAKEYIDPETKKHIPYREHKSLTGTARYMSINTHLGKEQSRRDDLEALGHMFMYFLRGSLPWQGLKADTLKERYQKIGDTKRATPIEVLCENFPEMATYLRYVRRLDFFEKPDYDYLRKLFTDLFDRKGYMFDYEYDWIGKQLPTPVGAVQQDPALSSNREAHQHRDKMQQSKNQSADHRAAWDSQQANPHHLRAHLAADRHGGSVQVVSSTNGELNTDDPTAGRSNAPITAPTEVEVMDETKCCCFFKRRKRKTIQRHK

Take `CC(C)n1nc(C#Cc2cccc(NC(=O)c3cccc(C(F)(F)F)c3)c2)c2c(N)ncnc21`: the inhibition – broadly, the change of the read-out against control, counted positive when it falls – in experiment [1] is 99%; in experiment [2] it was 99%; in experiment [3], 0%; in [4], 2%; in [5] it was -1%; in experiment [6], -5%. Also, the inhibition in [7] is 2%; in experiment [8], 10%; in experiment [9], -1%; in experiment [10], 1%; in [11], 2%; in [13], 18%. Moreover, the figures for the inhibition in experiment [14], in experiment [15] and in experiment [16] were 2%, -4% and 12%, respectively. Besides, the pIC50 (commonly the negative decadic logarithm of the IC50, by convention in mol/L) in [12] is 8.12.

Take `CC(C)n1nc(C#Cc2cccc3cc(-c4cccc(C(F)(F)F)c4)ncc23)c2c(N)ncnc21`: the inhibition in [1] was determined as 87%; in [2], 97%; in experiment [3], 3%; in [17] it was 5%; in experiment [4], 3%; in [5], 3%. Besides, the inhibition in experiment [6] was 2%; in experiment [8] it was 2%; in [9], -1%; in experiment [10], 2%; in [11], 1%; in experiment [13], 5%. The inhibition in experiment [14] turned out to be 1%; in [15] it was 6%; in experiment [16], 5%. In addition, the inhibition entry in [18] is “inactive”. Further, the pIC50 in experiment [19] is 8.52.
